The test has as its target ASGPR (Homo sapiens (Human), UniProt P07306). Description: Affinity to ASGPR measured by surface plasmon resonance (SPR). It counts as binding. Particulars: ASGPR ligands.
Setting [1] is: Table 4, numeric lower bounds, read-out: ASGPR_PR Binding KD.
[2] abbreviates: Table 2, Biacore 8K, 25° C., steady state fit, read-out: SPR Binding External Calculation: KD.
[3] abbreviates: Table 4, class symbols, read-out: ASGPR_PR Binding KD.

Like-named read-outs stand apart in the source and are kept apart here.

Sequence of ASGPR (P07306 whole entry): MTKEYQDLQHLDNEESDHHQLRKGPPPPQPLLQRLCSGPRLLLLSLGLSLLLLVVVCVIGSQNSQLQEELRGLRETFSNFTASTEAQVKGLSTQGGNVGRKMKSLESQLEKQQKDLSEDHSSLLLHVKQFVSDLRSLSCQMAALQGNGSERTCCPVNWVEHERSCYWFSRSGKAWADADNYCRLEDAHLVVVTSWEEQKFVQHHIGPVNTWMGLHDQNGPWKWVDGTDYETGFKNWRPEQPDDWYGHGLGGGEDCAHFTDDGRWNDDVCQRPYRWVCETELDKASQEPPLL

In the case of `OC[C@H]1OC[C@@H](Nc2ccncn2)[C@@H](O)[C@H]1O` [Compound A149], under setting [1], the Kd (usually a measure of binding affinity in units of concentration) is above 20 µM.
Take `CS(=O)(=O)NC(=O)N[C@H]1CO[C@H](CO)[C@H](O)[C@@H]1O` [Compound A157, N-(((3S,4R,5R,6R)-4,5-dihydroxy-6-(hydroxymethyl)tetrahydro-2H-pyran-3-yl)carbamoyl)methanesulfonamide]: the Kd under setting [1] is above 20 µM.
Take `OC[C@H]1OC[C@@H](CCc2ccccc2)[C@@H](O)[C@H]1O` [Compound A160, (2R,3R,4R,5R)-2-(hydroxymethyl)-5-phenethyltetrahydro-2H-pyran-3,4-diol]: the Kd under setting [2] is above 1000 µM.
With `CC(=O)NCCC[C@@H]1CO[C@H](CO)[C@H](O)[C@@H]1O` [Compound A163, N-(3-((3R,4R,5R,6R)-4,5-dihydroxy-6-(hydroxymethyl)tetrahydro-2H-pyran-3-yl)propyl)acetamide], the Kd under setting [1] was above 200 µM.
Turning to `OC[C@H]1OC[C@@H](c2ccc(F)cc2)[C@@H](O)[C@H]1O` [Compound A164, (2R,3R,4R,5R)-5-(4-fluorophenyl)-2-(hydroxymethyl)tetrahydro-2H-pyran-3,4-diol], the Kd under setting [2] was 500 to 1000 µM.
As for `CN(C)C(=O)[C@@H]1CO[C@H](CO)[C@H](O)[C@@H]1O` [Compound A170, (3R,4R,5R,6R)-4,5-dihydroxy-6-(hydroxymethyl)-N,N-dimethyltetrahydro-2H-pyran-3-carboxamide], the Kd under setting [1] is above 200 µM.
For `NC(=O)[C@@H]1CO[C@H](CO)[C@H](O)[C@@H]1O` [Compound A174, (3R,4R,5R,6R)-4,5-dihydroxy-6-(hydroxymethyl)tetrahydro-2H-pyran-3-carboxamide], under setting [3], the Kd was below 100 µM.
Still for that read-out and setting: for `O=C1CCCN1[C@@H]1CO[C@H](CO)[C@H](O)[C@@H]1O` [Compound A180, 1-((3R,4R,5R,6R)-4,5-dihydroxy-6-(hydroxymethyl)tetrahydro-2H-pyran-3-yl)pyrrolidin-2-one] the value was below 100 µM.
`OC[C@@H]1CO[C@H](CO)[C@H](O)[C@@H]1O` [Compound A181, (2R,3R,4R,5R)-2,5-bis(hydroxymethyl)tetrahydro-2H-pyran-3,4-diol]: the Kd under setting [2] is 100 to 500 µM.
On the same count and under the same terms, for `C[C@@H]1CO[C@H](CO)[C@H](O)[C@@H]1O` [Compound A182, (2R,3R,4R,5R)-2-(hydroxymethyl)-5-methyltetrahydro-2H-pyran-3,4-diol] the value was above 1000 µM; for `CC(=O)NC[C@@H]1CO[C@H](CO)[C@H](O)[C@@H]1O` [Compound A183, N-(((3R,4R,5R,6R)-4,5-dihydroxy-6-(hydroxymethyl)tetrahydro-2H-pyran-3-yl)methyl)acetamide], 100 to 500 µM.
Turning to `[N-]=[N+]=NCC1CO[C@H](CO)[C@H](O)[C@@H]1O` (stereo partly drawn) [Compound A184, (2R,3R,4R)-5-(azidomethyl)-2-(hydroxymethyl)tetrahydro-2H-pyran-3,4-diol], the Kd under setting [2] was below 100 µM.
`O=C(NC[C@@H]1CO[C@H](CO)[C@H](O)[C@@H]1O)C(F)(F)F` [Compound A186, N-(((3R,4R,5R,6R)-4,5-dihydroxy-6-(hydroxymethyl)tetrahydro-2H-pyran-3-yl)methyl)-2,2,2-trifluoroacetamide]: under setting [3], the Kd is above 1000 µM.
On the same count and under the same terms, for `OC[C@H]1OC[C@@H](CNc2nc(Cl)ns2)[C@@H](O)[C@H]1O` [Compound A188, (2R,3R,4R,5R)-5-(((3-chloro-1,2,4-thiadiazol-5-yl)amino)methyl)-2-(hydroxymethyl)tetrahydro-2H-pyran-3,4-diol] the value was 100 to 500 µM.
As to `C[C@@H]1[C@H](Oc2ccccc2)O[C@H](CO)[C@H](O)[C@@H]1O` [Compound A191, (2R,3R,4R,5S,6S)-2-(hydroxymethyl)-5-methyl-6-phenoxytetrahydro-2H-pyran-3,4-diol], the Kd under setting [2] was above 1000 µM.
For `OC[C@H]1OC[C@@H](COc2ccccc2)[C@@H](O)[C@H]1O` [Compound A193, (2R,3R,4R,5S)-2-(hydroxymethyl)-5-(phenoxymethyl)tetrahydro-2H-pyran-3,4-diol], the Kd under setting [2] is 100 to 500 µM.
The same measure, in the same setting: for `OC[C@H]1OC[C@@H](Cn2cnnn2)[C@@H](O)[C@H]1O` [Compound A196, (2R,3R,4R,5R)-5-((1H-tetrazol-1-yl)methyl)-2-(hydroxymethyl)tetrahydro-2H-pyran-3,4-diol] the value was below 100 µM.
On to `OC[C@H]1OC[C@@H](CN2CCOCC2)[C@@H](O)[C@H]1O` [Compound A209, (2R,3R,4R,5R)-2-(hydroxymethyl)-5-(morpholinomethyl)tetrahydro-2H-pyran-3,4-diol], for which, under setting [2], the dissociation constant Kd was above 1000 µM.
In the case of `OC[C@H]1OC[C@@H](CN2CCCCC2)[C@@H](O)[C@H]1O` [Compound A213, (2R,3R,4R,5R)-2-(hydroxymethyl)-5-(piperidin-1-ylmethyl)tetrahydro-2H-pyran-3,4-diol], the Kd under setting [3] is 100 to 500 µM.
For the molecule `CO[C@@H]1O[C@H](CO)[C@H](O)[C@H](O)[C@@H]1OC` [Compound A217, (2R,3R,4S,5S,6R)-2-(hydroxymethyl)-5,6-dimethoxytetrahydro-2H-pyran-3,4-diol], the Kd under setting [2] is above 1000 µM.
On to `CO[C@@H]1O[C@H](CO)[C@H](O)[C@H](O)[C@@H]1N1CCOCC1` [Compound A218, (2R,3R,4R,5S,6R)-2-(hydroxymethyl)-6-methoxy-5-morpholinotetrahydro-2H-pyran-3,4-diol], for which the Kd under setting [3] was above 1000 µM.
As to `OC[C@H]1OC=C(C(F)(F)F)[C@@H](O)[C@H]1O` [Compound A221-2, (2R,3R,4R)-2-(hydroxymethyl)-5-(trifluoromethyl)-3,4-dihydro-2H-pyran-3,4-diol], under setting [1], the Kd is above 200 µM.
In the case of `OC[C@H]1OC[C@@H](N2CCOCC2)[C@@H](O)[C@H]1O` [Compound A222, (2R,3R,4R,5R)-2-(hydroxymethyl)-5-morpholinotetrahydro-2H-pyran-3,4-diol], the Kd under setting [3] lay in the range of 100 to 500 µM.
Still for that read-out and setting: for `O=C1OCCN1[C@@H]1CO[C@H](CO)[C@H](O)[C@@H]1O` [Compound A223, 3-((3R,4R,5R,6R)-4,5-dihydroxy-6-(hydroxymethyl)tetrahydro-2H-pyran-3-yl)oxazolidin-2-one] the value was below 100 µM.
On to `O=c1nc(N[C@H]2CO[C@H](CO)[C@H](O)[C@@H]2O)[nH]c(=O)[nH]1` [Compound A283], for which the Kd under setting [2] is 100 to 500 µM.
As to `CO[C@@H]1O[C@H](COS(=O)(=O)c2ccc(C)cc2)[C@H](O)[C@H](O)[C@H]1NC(C)=O` [Compound A286], under setting [2], the dissociation constant Kd is below 100 µM.
Regarding `OC[C@@]12CO[C@@H](O1)[C@H](Nc1nc(Cl)ns1)[C@@H](O)[C@H]2O` [Compound A287, (1S,2R,3R,4R,5S)-4-((3-chloro-1,2,4-thiadiazol-5-yl)amino)-1-(hydroxymethyl)-6,8-dioxabicyclo[3.2.1]octane-2,3-diol], the Kd under setting [3] was below 100 µM.
The same measure, in the same setting: for `OC[C@@]12CO[C@@H](O1)[C@H](Nc1nc(Br)ns1)[C@@H](O)[C@H]2O` [Compound A288] the value was below 100 µM.
For the molecule `OC[C@@]12CO[C@@H](O1)[C@H](Nc1nccc(C(F)(F)F)n1)[C@@H](O)[C@H]2O` [Compound A289], the Kd under setting [3] is below 100 µM.
Regarding `OC[C@@]12CO[C@@H](O1)[C@H](Nc1ncns1)[C@@H](O)[C@H]2O` [Compound A290], under setting [3], the Kd was below 100 µM.
The same measure, in the same setting: for `OC[C@@]12CO[C@@H](O1)[C@H](Nc1nc(Cl)nn3cccc13)[C@@H](O)[C@H]2O` [Compound A291] the value was below 100 µM; for `COc1cc(Cl)nc(N[C@H]2[C@H]3OC[C@](CO)(O3)[C@H](O)[C@@H]2O)n1` [Compound A292, (1S,2R,3R,4R,5S)-4-((4-chloro-6-methoxypyrimidin-2-yl)amino)-1-(hydroxymethyl)-6,8-dioxabicyclo[3.2.1]octane-2,3-diol], below 100 µM; for `COc1cc(C#N)nc(N[C@H]2[C@H]3OC[C@](CO)(O3)[C@H](O)[C@@H]2O)n1` [Compound A294, 2-(((1S,2R,3R,4R,5S)-2,3-dihydroxy-1-(hydroxymethyl)-6,8-dioxabicyclo[3.2.1]octan-4-yl)amino)-6-methoxypyrimidine-4-carbonitrile], below 100 µM.
Consider `OC[C@H]1OC[C@H](Nc2cc(Cl)cc(Cl)n2)[C@@H](O)[C@H]1O` [Compound A296], for which the Kd under setting [3] was below 100 µM.
With `OC[C@H]1OC[C@H](Nc2cc(Cl)c(Cl)cn2)[C@@H](O)[C@H]1O` [Compound A298], the equilibrium dissociation constant (Kd) under setting [3] was below 100 µM.
Same read-out and setting: for `OC[C@H]1OC[C@H](Nc2nc(Br)ns2)[C@@H](O)[C@H]1O` [Compound A299, (2R,3R,4R,5S)-5-[(3-bromo-1,2,4-thiadiazol-5-yl)amino]-2-(hydroxymethyl)oxane-3,4-diol] the value was below 100 µM; for `OC[C@H]1OC[C@H](Nc2nc(C(F)(F)F)ns2)[C@@H](O)[C@H]1O` [Compound A300], below 100 µM; for `OC[C@H]1OC[C@H](Nc2ccnc(C(F)(F)F)n2)[C@@H](O)[C@H]1O` [Compound A301], below 100 µM.
On the same count and under the same terms, for `OC[C@H]1OC[C@H](Nc2cccc(C(F)(F)F)n2)[C@@H](O)[C@H]1O` [Compound A302] the value was below 100 µM.
Take `OC[C@H]1OC[C@H](Nc2nc(Cl)nn3cccc23)[C@@H](O)[C@H]1O` [Compound A304]: the Kd under setting [3] is below 100 µM.
Same read-out and setting: for `OC[C@H]1OC[C@H](Nc2nc(C(F)(F)F)cs2)[C@@H](O)[C@H]1O` [Compound A306] the value was below 100 µM; for `OC[C@H]1OC[C@H](Nc2nccc(Cl)c2C(F)(F)F)[C@@H](O)[C@H]1O` [Compound A307], below 100 µM.
For the molecule `OC[C@H]1OC[C@H](Nc2cc(C(F)(F)F)cnn2)[C@@H](O)[C@H]1O` [Compound A308], the Kd under setting [1] was above 20 µM.
As to `N#Cc1ccnc(N[C@H]2CO[C@H](CO)[C@H](O)[C@@H]2O)n1` [Compound A309], the Kd under setting [3] was below 100 µM.
With `OC[C@H]1OC[C@H](Nc2cc(C(F)(F)F)ncn2)[C@@H](O)[C@H]1O` [Compound A310], under setting [1], the Kd was above 20 µM.
Turning to `OC[C@H]1OC[C@H](Nc2ncc(-c3ccccc3)cn2)[C@@H](O)[C@H]1O` [Compound A311], the Kd under setting [1] was above 20 µM.
For the molecule `N#Cc1cncc(N[C@H]2CO[C@H](CO)[C@H](O)[C@@H]2O)n1` [Compound A312], under setting [3], the Kd is below 100 µM.
For `OC[C@H]1OC[C@H](Nc2ccc(C(F)(F)F)nn2)[C@@H](O)[C@H]1O` [Compound A313], the equilibrium dissociation constant (Kd) under setting [1] is above 20 µM.
